IC50 data for six molecules are collected here from BindingDB's records for doi:10.1016/j.ab.2006.10.017 (Pfizer, 2007).

The target of this assay is T1, Renin (Homo sapiens, UniProt P00797).
T1 sequence (P00797 whole entry): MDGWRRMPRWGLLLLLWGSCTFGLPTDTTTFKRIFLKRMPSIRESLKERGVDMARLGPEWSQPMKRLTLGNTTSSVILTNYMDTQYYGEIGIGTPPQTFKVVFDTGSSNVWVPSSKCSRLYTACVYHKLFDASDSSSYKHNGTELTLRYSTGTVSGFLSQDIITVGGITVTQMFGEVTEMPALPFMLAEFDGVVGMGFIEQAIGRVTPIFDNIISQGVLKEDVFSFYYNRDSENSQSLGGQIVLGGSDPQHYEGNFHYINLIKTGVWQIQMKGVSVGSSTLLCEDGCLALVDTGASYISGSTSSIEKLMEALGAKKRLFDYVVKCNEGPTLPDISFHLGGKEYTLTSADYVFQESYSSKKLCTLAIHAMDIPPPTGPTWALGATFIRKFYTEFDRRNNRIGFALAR
Briefly: In Vitro Renin IC50 Determinations (Tandem GFP FRET Assay). To be noted: pH 7.4; 22 °C. From the text: The renin assay utilized a tandem Green Flourescent Protein (tGFP) substrate that was hydrolyzed by human rennin.

A word on the IC50: it is the concentration needed to halve the response being measured. A lower IC50 goes with higher potency. As for `CCc1nc(N)nc(N)c1-c1ccc(NCc2cc(F)cc(F)c2)cc1` [5-(4-{[(3,5-difluorophenyl)methyl]amino}phenyl)-6-ethylpyrimidine-2,4-diamine], the IC50 is 6560 nM. This lies in the single-digit micromolar range.

Turning to `CCc1nc(N)nc(N)c1-c1ccc2c(c1)N(CCCOC)CCC2` [6-ethyl-5-[1-(3-methoxypropyl)-1,2,3,4-tetrahydroquinolin-7-yl]pyrimidine-2,4-diamine], it took 691 nM to reach half-maximal inhibition (IC50).

`CCc1nc(N)nc(N)c1-c1ccc2c3ccccc3n(CCCOC)c2c1` [6-ethyl-5-[9-(3-methoxypropyl)-9H-carbazol-2-yl]pyrimidine-2,4-diamine]: the IC50 came out at 173 nM.

With `CCc1nc(N)nc(NCCNS(=O)(=O)c2ccc3ccccc3c2)c1-c1ccc2c(c1)N(CCCOC)C(=O)C(C)(C)O2` [N-[2-({2-amino-6-ethyl-5-[4-(3-methoxypropyl)-2,2-dimethyl-3-oxo-3,4-dihydro-2H-1,4-benzoxazin-6-yl]pyrimidin-4-yl}amino)ethyl]naphthalene-2-sulfonamide], inhibition was half-maximal at 27 nM (IC50).

The molecule `CCc1nc(N)nc(NCCc2ccccc2NC(=O)c2ccc(N)c(OC)c2)c1-c1ccc2c(c1)N(CCCOC)C(=O)C(C)(C)O2` [4-amino-N-{2-[2-({2-amino-6-ethyl-5-[4-(3-methoxypropyl)-2,2-dimethyl-3-oxo-3,4-dihydro-2H-1,4-benzoxazin-6-yl]pyrimidin-4-yl}amino)ethyl]phenyl}-3-methoxybenzamide] had an IC50 of 336 nM.

For the molecule `CCc1nc(N)nc(N)c1-c1ccc2c(c1)N(CCCOC)C(c1ccccc1)CC2` (stereo unspecified) [6-ethyl-5-[1-(3-methoxypropyl)-2-phenyl-1,2,3,4-tetrahydroquinolin-7-yl]pyrimidine-2,4-diamine], the IC50 came out at 58 nM.
